In publication PMC10004777 (Molecules, 2023):

What was measured:
HK-2 cells = assay: Cell viability (MTT) assay, HK-2 normal cells (cytotoxicity); type: cell-based
Protocol: (§1) The cell lines present in this study were obtained from Procell Life Science & Technology Co. Ltd. MCF-7, HepG2 and SJSA-1 cells were cultured in DMEM medium (DMEM, Gibco) supplemented with 10% fetal bovine serum (FBS, Gibco), 1% penicillin-streptomycin (Hyclone) at 37℃ in a humid environment with 5% CO2. HK-2 cells were cultured in DMEM/F12 (1:1) medium and placed in incubators in the same environment.
(§2) Cell viability was determined by MTT assay. MCF-7, HepG2, SJSA-1 and HK-2 cells (6 × 10^3 cells /well) were seeded in 96-well plates with serum-free medium for 24 h. […] After 48 or 72 h, 10 μL MTT (5 mg/mL, Beyotime) was added and incubated at 37 °C for 4 h. Then 100 μL of lysate was added. After complete dissolution of the crystal, the absorbance was measured at 540 nm and expressed as the average percentage of absorbance between treated and control cells. The value for control cells was set at 100%. Cell survival rate was calculated as the ratio of the absorbance of the cells and negative control after minus the blank absorbance respectively.

[1] = test system: MCF-7 breast cancer cells; assay: Cell viability (MTT) assay, MCF-7; type: cell-based; details: for anti-proliferation activity on MCF-7 compared with GAA: MCF-7, 48 h
Protocol: MCF-7 is a commonly used tumor cell line.
as §1, §2

[2] = test system: osteosarcoma cell line SJSA-1; assay: Cell viability (MTT) assay, SJSA-1; type: cell-based; details: for anti-proliferation activity on SJSA-1 (in words): SJSA-1, 72 h
Protocol: (§3) To investigate the selectivity of these derivatives towards different tumor cell lines, we also selected HepG2 and osteosarcoma cell line SJSA-1 cells to evaluate the anti-proliferation activity of the derivatives. […] Except for compounds A2 and A11, the effects of other compounds on SJSA-1 were not strong.
as §1, §2

HepG2 cells = assay: Cell viability (MTT) assay, HepG2; type: cell-based; details: for anti-proliferation activity on HepG2 (in words): HepG2, 48 h
Protocol: as §3, §1, §2

[3] = test system: MDM2, p53 protein and Bcl-2/Bax in MCF-7 cells; assay: Western blot protein expression, MCF-7; type: cell-based; details: MCF-7, 24 h
From the text: (§4) In the introduction section, we introduced that the concept that the MDM2-p53 pathway can induce cell apoptosis by up-regulating the expression of p53 protein to inhibit the proliferation of tumor cells, and by blocking the interaction of MDM2 and p53, the activation of p53 results in transcription of MDM2 mRNA, leading to robust MDM2 protein accumulation. In order to verify the effect of A2 on this pathway, we examined the effect of A2 on the protein level of MDM2, p53 protein and Bcl-2/Bax related to apoptosis, as shown in Figure 5. […] The level of Bcl-2/Bax decreased which was consistent with the apoptosis of MCF-7 cells induced by A2. We also investigated the effect of A2 on the SJSA-1 cell line which overexpresses MDM2.
(§5) For Western blot analysis, MCF-7 and SJSA-1 cells were treated with different concentrations of A2 for 24 h. The total cell protein was extracted, and proteins were isolated using 10% SDS-PAGE gel system. The proteins on the gel were transferred to PVDF membrane, blocked in 5% BSA at room temperature for 2 h, incubated in primary antibody dilution at 4 °C overnight, and washed with TBST for 3 times, 10 min each. Then, they were transferred to dilute release solution of secondary antibody and incubated at room temperature for 2 h. ECL chemiluminescence development solution (Beyotime, BeyoECL star) was added uniformly and detected on gel imaging system (Clinx ChemiScope, China). Antibodies for blotting were MDM2 (abcam, ab16895), P53 (Proteintech, 10442-1-AP), Bcl-2 (CST, 15071S), Bax (CST, 2772T) and β-actin (abcam, ab8226).

MDM2 protein = molecular target: T1, MDM2 protein (Homo sapiens, UniProt Q00987); assay: Surface plasmon resonance (SPR) binding assay
T1 construct: purchased Protintech (so in the source)
Protocol: In order to speculate whether A2 effects the p53-MDM2 pathway by binding with MDM2 to inhibit the interaction between MDM2 and p53, we carried out in silico and in vitro binding experiments. […] We used the S-value to evaluate the binding degree of the compound and MDM2 in the molecular docking experiments. The higher the absolute value of this number, the stronger the binding force.
MDM2 protein (5 mg/mL, Protintech) was immobilized on a PCH sensor chip (Octet) and preactivated with EDC/NHS mixture for 420 s at a flow rate of 10 μL/min. A2 was diluted to 100, 50, 25, 12.5, 6.25, 3.13, 0 μM with PBST buffer containing 1% DMSO. The binding time was 600 s, and the flow rate was 20 μL/min. The dissociation time was 180 s, and the affinity constant KD value was obtained by computer fitting and steady-state analysis.

[4] = test system: MDM2 and p53 protein in SJSA-1 cell line; assay: Western blot protein expression, SJSA-1; type: cell-based; details: SJSA-1, 24 h, 12.5, 25 and 50 µM
From the text: as §4
as §5, with “Then, they were transferred to dilute release solution of secondary antibody and incubated at room temperature for 2 h.” left out, “Antibodies for blotting were MDM2 (abcam, ab16895), P53 (Proteintech, 10442-1-AP), Bcl-2 (CST, 15071S), Bax (CST, 2772T) and β-actin (abcam, ab8226).” left out

SJSA-1 cells = assay: Flow cytometry apoptosis, Annexin V-FITC/PI staining; type: cell-based; details: 24 h
Protocol: Cells were stained with Annexin V-FITC and propidium iodide.
To determine the apoptosis rate, an Annexin V-FITC/PI double staining apoptosis assay kit (Beyotime) was used to detect apoptotic cells by flow cytometry (BD FACSALOBUR), according to the manufacturer’s instructions. Briefly, SJSA-1 cells were treated with 0.1% DMSO, 12.5, 25, and 50 μM of A2 for 24 h. After harvesting, the cells were incubated with 5 μL Annexin V-FITC for 15 min and 10 μL PI for 5 min at 4 °C under dark conditions. Flow cytometry was then performed to analyze the apoptosis rate. Data were analyzed by using BD FACSDiva 8.0.1.

T1 sequence (Q00987 whole entry): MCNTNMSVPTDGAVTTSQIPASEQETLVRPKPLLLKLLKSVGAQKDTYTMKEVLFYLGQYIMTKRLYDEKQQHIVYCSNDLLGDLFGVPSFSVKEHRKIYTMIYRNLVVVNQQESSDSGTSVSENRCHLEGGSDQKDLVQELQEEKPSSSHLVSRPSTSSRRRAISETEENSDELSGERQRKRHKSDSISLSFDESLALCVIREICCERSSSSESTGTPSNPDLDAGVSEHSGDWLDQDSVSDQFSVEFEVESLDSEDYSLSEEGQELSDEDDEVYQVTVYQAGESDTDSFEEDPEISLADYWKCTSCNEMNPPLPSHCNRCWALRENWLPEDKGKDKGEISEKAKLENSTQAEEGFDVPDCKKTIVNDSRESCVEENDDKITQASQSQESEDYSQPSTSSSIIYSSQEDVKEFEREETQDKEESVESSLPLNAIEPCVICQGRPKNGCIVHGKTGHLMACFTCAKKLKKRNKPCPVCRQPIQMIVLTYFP

Compound | melting point [°C] | toxicity to HK2 cells (in words) (HK-2 cells) | Viability of Cells (% of Control) (HK-2 cells; 50 µM) | Viability of Cells (% of Control) (HK-2 cells; 100 µM) | Viability of Cells (% of Control) ([1]; 25 µM) | Viability of Cells (% of Control) ([1]; 100 µM) | anti-proliferation activity on MCF-7 compared with GAA [1] | Viability of Cells (% of Control) ([2]; 50 µM) | Viability of Cells (% of Control) ([2]; 100 µM) | Viability of Cells (% of Control) (HepG2 cells; 25 µM) | Viability of Cells (% of Control) (HepG2 cells; 50 µM) | anti-proliferation activity on HepG2 (in words) (HepG2 cells) | Viability of Cells (% of Control) ([1]; 50 µM) | anti-proliferation activity on SJSA-1 (in words) [2] | other results
C[C@H](CC(=O)C[C@@H](C)[C@H]1C[C@H](O)[C@@]2(C)C3=C(C(=O)C[C@]12C)[C@@]1(C)CCC(=O)C(C)(C)[C@@H]1C[C@@H]3O)C(=O)NCc1ccc(F)cc1 [Compound A6, (4-Fluorobenzyl)-(7β,15α,25R)-7,15-Dihydroxy-3,11,23-Trioxolanost-8-en-26-oic Amide] | 178.4 to 179.3 | some toxicity | 89.6 ± 6.9 % of Control | 80.2 ± 9.0 % of Control | 77.1 ± 4.2 % of Control | 26.4 ± 1.5 % of Control | significant anti-proliferation activities | 92.6 ± 3.1 % of Control | 65.8 ± 3.2 % of Control | 84.0 ± 0.8 % of Control | 76.6 ± 1.6 % of Control | weaker anti-proliferation effect | – | – | inhibition at 50 µM ([1]; Homo sapiens, MCF7, MCF-7, 50 µM, 48 h, read-out: inhibition rate of MCF-7): 63.6%
C[C@H](CC(=O)C[C@@H](C)[C@H]1C[C@H](O)[C@@]2(C)C3=C(C(=O)C[C@]12C)[C@@]1(C)CCC(=O)C(C)(C)[C@@H]1C[C@@H]3O)C(=O)NCCc1ccc(F)cc1 [Compound A11, (4-Fluorophenethyl)-(7β,15α,25R)-7,15-Dihydroxy-3,11,23-Trioxolanost-8-en-26-oic Amide] | 188.1 to 189 | – | 89.8 ± 9.6 % of Control | 86.9 ± 2.7 % of Control | 100.5 ± 2.5 % of Control | 58.4 ± 5.5 % of Control | – | 56.1 ± 8.7 % of Control | 41.9 ± 3.1 % of Control | 78.5 ± 3.0 % of Control | 69.1 ± 2.0 % of Control | – | 101.8 ± 0.2 % of Control | some selectivity for SJSA-1 | –
CCCCCCNC(=O)[C@H](C)CC(=O)C[C@@H](C)[C@H]1C[C@H](O)[C@@]2(C)C3=C(C(=O)C[C@]12C)[C@@]1(C)CCC(=O)C(C)(C)[C@@H]1C[C@@H]3O [Compound A2, (n-hexyl)-(7β,15α,25R)-7,15-Dihydroxy-3,11,23-Trioxolanost-8-en-26-oic Amide] | 129.9 to 131.3 | – | – | – | – | – | significant anti-proliferation activities | – | – | – | – | potent anti-proliferation activity | – | potent inhibition | level of Bcl-2/Bax [3]: decreased; MDM2 protein level ([3]; 50 µM): increasing trend; p53 protein level ([3]; 50 µM): increasing trend; Kd (MDM2 protein; immobilized MDM2, steady-state analysis): 1680 nM; Kd (MDM2 protein; printed in Figure 7): 1648 ± 7 nM; expression of MDM2 [4]: increased in a dose-dependent manner; expression of p53 protein [4]: increased in a dose-dependent manner; Viability of Cells (% of Control) (HK-2 cells; HK-2 normal cells, 50 µM, 48 h, MTT): 97.1 ± 4.1 % of Control; Viability of Cells (% of Control) (HK-2 cells; HK-2 normal cells, 100 µM, 48 h, MTT): 90.9 ± 3.0 % of Control; Viability of Cells (% of Control) ([1]; MCF-7, 25 µM, 48 h, MTT): 66.76 ± 6.2 % of Control; Viability of Cells (% of Control) ([1]; MCF-7, 50 µM, 48 h, MTT): 59.4 ± 4.7 % of Control; Viability of Cells (% of Control) ([1]; MCF-7, 100 µM, 48 h, MTT): 50.37 ± 1.7 % of Control; Viability of Cells (% of Control) ([2]; SJSA-1, 50 µM, 72 h, MTT): 51.4 ± 1.7 % of Control; Viability of Cells (% of Control) ([2]; SJSA-1, 100 µM, 72 h, MTT): 28.5 ± 3.4 % of Control; proportion of early phase apoptosis cells (Q3) (SJSA-1 cells; SJSA-1, 12.5 µM): 11.6%; proportion of early phase apoptosis cells (Q3) (SJSA-1 cells; SJSA-1, 25 µM): 12.3%; proportion of early phase apoptosis cells (Q3) (SJSA-1 cells; SJSA-1, 50 µM): 18.7%; Viability of Cells (% of Control) (HepG2 cells; HepG2, 25 µM, 48 h, MTT): 78.8 ± 1.7 % of Control; Viability of Cells (% of Control) (HepG2 cells; HepG2, 50 µM, 48 h, MTT): 48.4 ± 2.1 % of Control
C[C@H](CC(=O)C[C@@H](C)[C@H]1C[C@H](O)[C@@]2(C)C3=C(C(=O)C[C@]12C)[C@@]1(C)CCC(=O)C(C)(C)[C@@H]1C[C@@H]3O)C(=O)NC1Cc2ccccc2C1 [Compound A9, (2,3-Dihydro-1H-inden-2-yl)-(7β,15α,25R)-7,15-Dihydroxy-3,11,23-Trioxolanost-8-en-26-oic Amide] | 199.7 to 200.3 | some toxicity | 79.0 ± 2.9 % of Control | 80.1 ± 2.8 % of Control | 87.5 ± 7.6 % of Control | 40.3 ± 7.8 % of Control | significant anti-proliferation activities | 99.2 ± 2.6 % of Control | 89.6 ± 3.8 % of Control | 64.2 ± 1.4 % of Control | 52.4 ± 2.1 % of Control | potent anti-proliferation activity | 53.3 ± 6.9 % of Control | – | –
C[C@H](CC(=O)C[C@@H](C)[C@H]1C[C@H](O)[C@@]2(C)C3=C(C(=O)C[C@]12C)[C@@]1(C)CCC(=O)C(C)(C)[C@@H]1C[C@@H]3O)C(=O)N1CCN(c2ccccc2)CC1 [Compound A15, (4-Phenylpiperazin-1-yl)-(7β,15α,25R)-7,15-Dihydroxy-3,11,23-Trioxolanost-8-en-26-oic Amide] | 229.4 to 229.9 | – | 123.3 ± 5.5 % of Control | 111.0 ± 8.7 % of Control | 74.3 ± 5.2 % of Control | 66.5 ± 1.4 % of Control | significant anti-proliferation activities | 75.9 ± 0.9 % of Control | 83.5 ± 0.8 % of Control | 77.1 ± 2.1 % of Control | 99.3 ± 0.2 % of Control | weaker anti-proliferation effect | 70.4 ± 1.5 % of Control | – | –
